In patent US20110118262A1, “Pyrrolidinyl and Piperidinyl Compounds Useful as NHE-1 Inhibitiors” (BOEHRINGER INGELHEIM INTERNATIONAL GMBH, priority 2008, published 2011) one finds IC50 data, which are given here for 28 molecules.

In the assay the target is T1, NHE-1 (Homo sapiens, UniProt P19634).
T1 construct: endogenous in cells; host or cells: HT-29
T1 sequence (P19634 whole entry): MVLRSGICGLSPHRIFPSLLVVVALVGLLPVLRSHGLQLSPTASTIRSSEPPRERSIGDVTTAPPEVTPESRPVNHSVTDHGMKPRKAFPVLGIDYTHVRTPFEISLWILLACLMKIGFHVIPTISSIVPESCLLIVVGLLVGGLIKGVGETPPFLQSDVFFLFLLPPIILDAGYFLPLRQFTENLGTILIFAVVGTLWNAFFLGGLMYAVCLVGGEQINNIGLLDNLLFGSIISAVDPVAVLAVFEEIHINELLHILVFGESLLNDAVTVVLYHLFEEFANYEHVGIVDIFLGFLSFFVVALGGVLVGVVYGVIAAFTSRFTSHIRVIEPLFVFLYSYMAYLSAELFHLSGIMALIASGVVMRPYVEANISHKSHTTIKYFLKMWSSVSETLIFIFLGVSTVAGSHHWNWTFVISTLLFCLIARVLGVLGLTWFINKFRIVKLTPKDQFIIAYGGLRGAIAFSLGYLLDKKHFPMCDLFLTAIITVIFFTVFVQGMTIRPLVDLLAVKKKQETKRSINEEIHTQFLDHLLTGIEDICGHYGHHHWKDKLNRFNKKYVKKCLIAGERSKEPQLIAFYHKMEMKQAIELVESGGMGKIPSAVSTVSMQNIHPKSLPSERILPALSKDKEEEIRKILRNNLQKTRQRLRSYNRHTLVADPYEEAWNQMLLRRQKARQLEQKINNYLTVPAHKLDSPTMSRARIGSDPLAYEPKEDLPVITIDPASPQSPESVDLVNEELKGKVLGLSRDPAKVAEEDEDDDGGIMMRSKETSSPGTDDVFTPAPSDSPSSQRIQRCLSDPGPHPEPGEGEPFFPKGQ
The experiment in a line: Evaluation of NHE-1 Inhibition (pHi) in HT-29 cells. It is filed as cell-based. The note with it: BCECF dye, 50% inhibition of the intracellular pH recovery, read-out: NHE1 HT29 pHi IC50. A digest of the protocol: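 Intracellular pH measured with BCECF in HT-29 cells after 24 h culture. Cells dye-loaded 30 min at 37° C, then acid-loaded with NH4Cl-containing choline buffer (pH 7.5) for 30 min at RT. Compounds added on an FDSS6000 fluorescence reader.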
As a reminder, the IC50 is the point on the concentration scale where inhibition reaches its midpoint. Regarding `COc1cccc(C(=O)N2CCC(c3ccc(C(=O)NC(=N)N)cc3C(F)(F)F)CC2)c1OC` [N-{4-[1-(2,3-Dimethoxy-benzoyl)-piperidin-4-yl]-3-trifluoromethyl-benzoyl}-guanidine], the IC50 turned out to be 46 nM.

As to `Cc1cc(C2CCN(C(=O)C(C)(C)N)CC2)c(C(F)(F)F)cc1C(=O)NC(=N)N` [N-{4-[1-(2-Amino-2-methyl-propionyl)-piperidin-4-yl]-2-methyl-5-trifluoromethyl-benzoyl}-guanidine], the IC50 came to 10 nM.

In the case of `CC(C)(N)C(=O)N1CCC(c2ccc(C(=O)NC(=N)N)cc2C(F)(F)F)CC1` [N-{4-[1-(2-Amino-2-methyl-propionyl)-piperidin-4-yl]-3-trifluoromethyl-benzoyl}-guanidine], the IC50 is 8 nM.

For `CC(C)(C)C(N)C(=O)N1CCC(c2ccc(C(=O)NC(=N)N)cc2C(F)(F)F)CC1` (stereo not shown) [N-{4-[1-(2-Amino-3,3-dimethyl-butyryl)-piperidin-4-yl]-3-trifluoromethyl-benzoyl}-guanidine], the IC50 was found to be 16 nM.

As to `N=C(N)NC(=O)c1ccc(C2CCN(C(=O)C(N)CC3CC3)CC2)c(C(F)(F)F)c1` (stereo not shown) [N-{4-[1-(2-Amino-3-cyclopropyl-propionyl)-piperidin-4-yl]-3-trifluoromethyl-benzoyl}-guanidine], the IC50 came out at 19 nM.

Consider `N=C(N)NC(=O)c1ccc(C2CCN(C(=O)C(N)CO)CC2)c(C(F)(F)F)c1` (stereo not shown) [N-{4-[1-(2-Amino-3-hydroxy-propionyl)-piperidin-4-yl]-3-trifluoromethyl-benzoyl}-guanidine], for which the IC50 came to 5 nM.

As for `CC(C)C(N)C(=O)N1CCC(c2ccc(C(=O)NC(=N)N)cc2C(F)(F)F)CC1` (stereo not shown) [N-{4-[1-(2-Amino-3-methyl-butyryl)-piperidin-4-yl]-3-trifluoromethyl-benzoyl}-guanidine], the IC50 came to 12 nM.

In the case of `N=C(N)NC(=O)c1ccc(C2CCN(C(=O)C(N)Cc3ccccc3)CC2)c(C(F)(F)F)c1` (stereo not shown) [N-{4-[1-(2-Amino-3-phenyl-propionyl)-piperidin-4-yl]-3-trifluoromethyl-benzoyl}-guanidine], the IC50 was 19 nM.

For `N=C(N)NC(=O)c1ccc(C2CCN(C(=O)C(N)Cc3ccncc3)CC2)c(C(F)(F)F)c1` (stereo not shown) [N-{4-[1-(2-Amino-3-pyridin-4-yl-propionyl)-piperidin-4-yl]-3-trifluoromethyl-benzoyl}-guanidine], the half-inhibitory concentration (IC50) is 32 nM.

In the case of `N=C(N)NC(=O)c1ccc(C2CCN(C(=O)C(N)Cc3cccs3)CC2)c(C(F)(F)F)c1` (stereo not shown) [N-{4-[1-(2-Amino-3-thiophen-2-yl-propionyl)-piperidin-4-yl]-3-trifluoromethyl-benzoyl}-guanidine], the IC50 was 35 nM.

Consider `CC(C)CC(N)C(=O)N1CCC(c2ccc(C(=O)NC(=N)N)cc2C(F)(F)F)CC1` (stereo not shown) [N-{4-[1-(2-Amino-4-methyl-pentanoyl)-piperidin-4-yl]-3-trifluoromethyl-benzoyl}-guanidine], for which the IC50 is 40 nM.

Regarding `CSCCC(N)C(=O)N1CCC(c2ccc(C(=O)NC(=N)N)cc2C(F)(F)F)CC1` (stereo not shown) [N-{4-[1-(2-Amino-4-methylsulfanyl-butyryl)-piperidin-4-yl]-3-trifluoromethyl-benzoyl}-guanidine], the IC50 was 13 nM.

As for `N=C(N)NC(=O)c1ccc(C2CCN(C(=O)CN)CC2)c(C(F)(F)F)c1` [N-{4-[1-(2-Amino-acetyl)-piperidin-4-yl]-3-trifluoromethyl-benzoyl}-guanidine], the IC50 was determined as 4 nM.

`CC(N)C(=O)N1CCC(c2ccc(C(=O)NC(=N)N)cc2C(F)(F)F)CC1` (stereo not shown) [N-{4-[1-(2-Amino-propionyl)-piperidin-4-yl]-3-trifluoromethyl-benzoyl}-guanidine]: the IC50 turned out to be 5 nM.

Consider `CS(=O)(=O)c1ccc(C(=O)N2CCC(c3ccc(C(=O)NC(=N)N)cc3C(F)(F)F)CC2)c(Cl)c1` [N-{4-[1-(2-Chloro-4-methanesulfonyl-benzoyl)-piperidin-4-yl]-3-trifluoromethyl-benzoyl}-guanidine], for which the IC50 was determined as 60 nM.

Turning to `N=C(N)NC(=O)c1ccc(C2CCN(C(=O)c3ccccc3Cl)CC2)c(C(F)(F)F)c1` [N-{4-[1-(2-Chloro-benzoyl)-piperidin-4-yl]-3-trifluoromethyl-benzoyl}-guanidine], the IC50 came to 119 nM.

Regarding `N#Cc1ccccc1C(=O)N1CC=C(c2ccc(C(=O)NC(=N)N)cc2C(F)(F)F)CC1` [N-{4-[1-(2-Cyano-benzoyl)-1,2,3,6-tetrahydro-pyridin-4-yl]-3-trifluoromethyl-benzoyl}-guanidine], the IC50 came to 93 nM.

As to `N#Cc1ccccc1C(=O)N1CCC(c2ccc(C(=O)NC(=N)N)cc2C(F)(F)F)CC1` [N-{4-[1-(2-Cyano-benzoyl)-piperidin-4-yl]-3-trifluoromethyl-benzoyl}-guanidine], the IC50 was 62 nM.

`CN(C)CC(=O)N1CCC(c2ccc(C(=O)NC(=N)N)cc2C(F)(F)F)CC1` [N-{4-[1-(2-Dimethylamino-acetyl)-piperidin-4-yl]-3-trifluoromethyl-benzoyl}-guanidine]: the IC50 is 5 nM.

In the case of `N=C(N)NC(=O)c1ccc(C2CCN(C(=O)c3ccc(C(F)(F)F)cc3F)CC2)c(C(F)(F)F)c1` [N-{4-[1-(2-Fluoro-4-trifluoromethyl-benzoyl)-piperidin-4-yl]-3-trifluoromethyl-benzoyl}-guanidine], the 50% inhibitory concentration (IC50) is 305 nM.

`N=C(N)NC(=O)c1ccc(C2CCN(C(=O)c3ccccc3F)CC2)c(C(F)(F)F)c1` [N-{4-[1-(2-Fluoro-benzoyl)-piperidin-4-yl]-3-trifluoromethyl-benzoyl}-guanidine]: the IC50 came to 125 nM.

As for `Cc1cc(C2CCN(C(=O)C(C)(C)O)CC2)c(C(F)(F)F)cc1C(=O)NC(=N)N` [N-{4-[1-(2-Hydroxy-2-methyl-propionyl)-piperidin-4-yl]-2-methyl-5-trifluoromethyl-benzoyl}-guanidine], the concentration for half-maximal inhibition (IC50) worked out at 16 nM.

Consider `N=C(N)NC(=O)c1ccc(C2CCN(C(=O)Cn3ccnc3)CC2)c(C(F)(F)F)c1` [N-{4-[1-(2-Imidazol-1-yl-acetyl)-piperidin-4-yl]-3-trifluoromethyl-benzoyl}-guanidine], for which the IC50 was found to be 6 nM.

With `C[S+]([O-])c1ccccc1C(=O)N1CCC(c2ccc(C(=O)NC(=N)N)cc2C(F)(F)F)CC1` (stereo not shown) [N-{4-[1-(2-Methanesulfinyl-benzoyl)-piperidin-4-yl]-3-trifluoromethyl-benzoyl}-guanidine], the 50% inhibitory concentration (IC50) was 54 nM.

As to `CS(=O)(=O)c1ccccc1C(=O)N1CC=C(c2ccc(C(=O)NC(=N)N)cc2C(F)(F)F)CC1` [N-{4-[1-(2-Methanesulfonyl-benzoyl)-1,2,3,6-tetrahydro-pyridin-4-yl]-3-trifluoromethyl-benzoyl}-guanidine], the concentration for half-maximal inhibition (IC50) stood at 73 nM.

Regarding `CS(=O)(=O)c1ccccc1C(=O)N1CCC(c2ccc(C(=O)NC(=N)N)cc2C(F)(F)F)CC1` [N-{4-[1-(2-Methanesulfonyl-benzoyl)-piperidin-4-yl]-3-trifluoromethyl-benzoyl}-guanidine], the IC50 is 69 nM.

As for `COCC(=O)N1CCC(c2ccc(C(=O)NC(=N)N)cc2C(F)(F)F)CC1` [N-{4-[1-(2-Methoxy-acetyl)-piperidin-4-yl]-3-trifluoromethyl-benzoyl}-guanidine], the half-inhibitory concentration (IC50) was found to be 22 nM.

Consider `COc1ncccc1C(=O)N1CCC(c2ccc(C(=O)NC(=N)N)cc2C(F)(F)F)CC1` [N-{4-[1-(2-Methoxy-pyridine-3-carbonyl)-piperidin-4-yl]-3-trifluoromethyl-benzoyl}-guanidine], for which the IC50 was 42 nM.
